Test system: orf19.2175 (CPD1) expression in C. albicans
Experiment: RNA dot blotting of C. albicans genes after BF1 treatment
Format: cell-based, Candida albicans
Settings: 3 μg/mL BF1
Protocol: To corroborate the microarray results, four genes were checked with RNA dot blotting for their expression levels under the same conditions tested in microarray analysis: orf19.5604 (MDR1), orf19.2175 (CPD1), orf19.2896 (SOU1) and orf19.5565. The total RNA of a control sample without furanone was used to synthesize complementary DNA (cDNA) using OneStep RT-PCR Kit (QIAGEN Inc.) by following the manufacture's protocol. The annealing temperature was optimized based on the primers and was performed at 50° C. for 1 minute in each cycle. The length of the template cDNA was 457 bp, 364 bp, 455 bp and 423 bp for orf19.5604 (MDR1), orf19.2175 (CPD1), orf19.2896 (SOU1) and orf19.5565, respectively.
The DNA probes labeled with Digoxigenin (DIG)-dUTP were then generated using the same primer sets and PCR DIG Probe Synthesis Kit (Roche® Applied Science, Mannheim, Germany) by following the manufacture's protocol except that the annealing temperature was 48° C. for orf19.2175 and orf19.5565, and 51° C. for orf19.2896 and orf19.5604. Total RNA was isolated from cultures treated under the same conditions as in DNA microarray experiments. […] The light signal was recorded using Biomax X-ray films from Kodak (Rochester, N.Y.). […]

In the case of `CCCCC1=C(Br)/C(=C/Br)OC1=O` [BF1, 4-bromo-5Z-(bromomethylene)-3-butylfuran-2-one], the “induction of gene CPD1 in RNA dot blotting” value is reported as 10 fold.
